The test system of the assay is HEK-hOCT2 cells. As to the kind of experiment: Platinum-DNA adduct formation in HEK-hOCT2 cells. In kind it is cell-based, human. To be noted: 2-hr exposure. On the procedure: After incubation at 37° C. and 5% CO2 for 2 hours, the cells were washed with ice-cold PBS three times and harvested. The genomic DNA was isolated from the cells and the platinum content associated with DNA was determined by ICP-MS and normalized for DNA content. Data are expressed as mean±SD from a typical experiment performed in triplicate. Two independent experiments were conducted and similar results were obtained.
The platinum content associated with genomic DNA was determined as described in Samimi et al., Clin. Cancer Res., 10:4661-4669 (2004) with some modifications. Briefly, the cells were grown in 100 mm×20 mm dishes in the culture medium without any antibiotics to over 90% confluence. For HEK 293 cells, poly-D-lysine coated dishes were used. Then, the cells were incubated in the culture medium containing the specified concentrations of the platinum-based compounds at 37° C. in 5% CO2 for 2 hours (or 25 min as specified). In some experiments, phosphate buffer (PB: 1.06 mM KH2PO4, 2.97 mM Na2HPO4, pH 7.4) containing 155 mM NaCl (PB—Cl buffer) or 103 mM Na2SO4 (PB—SO4 buffer) was used instead of the culture medium as specified. For the OCT inhibitor study, the incubation medium (buffer) also contained disopyramide or cimetidine). If PB—Cl or PB—SO4 buffer was used, the cells were washed with the same buffer once before drug incubation. After incubation, the cells were washed with ice-cold PBS, scraped, and pelleted. Genomic DNA was isolated from the cell pellets using the Wizard® Genomic DNA Purification Kit (Promega, Madison, Wis.) following the manufacturer's instructions. Briefly, the cells were lysed with Nuclei Lysis Solution. After RNA digestion and protein precipitation, the lysates were centrifuged and the resulting supernatant was aliquoted. The genomic DNA prepared from two different aliquots of the supernatant was used for platinum and DNA content determination, respectively. For the determination of platinum, the DNA samples were treated with 70% nitric acid at 65° C. and diluted in the same way as described above. The platinum content was analyzed using ICP-MS and the DNA content was measured by absorption spectroscopy.

The text below walks through data of US20100028259A1, “USE OF ORGANIC CATION TRANSPORTERS FOR CANCER DIAGNOSIS AND THERAPY” (The Regents of the University of California, priority 2006, published 2010).

On to `O=C1[O][Pt]2([NH][C@@H]3CCCC[C@H]3[NH]2)[O]C1=O` [oxaliplatin], for which, under “cimetidine 1.5 mM”, the “platinum-DNA adduct level in HEK-hOCT2, cimetidine” value was 0.00216±0.00031 pmol/μg DNA and the “rb in HEK-hOCT2, cimetidine” value is on record as 7.13±1.02×10^−7. Also, where the note is “oxaliplatin 0.6 μM”, the “platinum-DNA adduct level in HEK-hOCT2” value turned out to be 0.0284±0.0020 pmol/μg DNA and the “rb in HEK-hOCT2” value is recorded as 9.37±0.66×10^−6.
